Data: patent US9611485B2, “Polynucleotide and polypeptide sequences associated with herbicide tolerance” (priority 2010, dated 2017)

Legend:
[1] = test system: Soybean (cv. Jack) T0 plants; test: Saflufenacil foliar spray of transgenic T0 soybean plants, visual injury; format: in vivo, Glycine max; settings: 3 g/ha foliar spray, 7 days after treatment, 0=no effect, 100=dead plant
Protocol: Soybean was transformed essentially as described in Li et al. (2007) Plant Mol Biol 65:329-341. Soybean (cv. Jack) embryogenic cultures were transformed by particle bombardment with plant expression vectors using a strong constitutive promoter to control the GM ABCT1 SUS (susceptible allele, SEQ ID NO:125) or GM ABCT1 TOL (resistant allele, SEQ ID NO: 124) genes. Stable transgenic events were tested for presence of the transgene by PCR, but no confirmation of expression was performed. Three clonal plants were produced from each transgenic event.
These T0 plants were grown to the V2 to V8 growth stage and then sprayed with saflufenacil at a rate of 3 g/ha. All treatments were applied in a spray volume of 280 L/ha. The spray mixture contained acetone, water, glycerin and surfactant. Treated plants were compared to untreated plants of similar genetic background and evaluated for herbicide injury at seven days after treatment. Visual injury was on a scale of 0 to 100% injury (0=no effect to 100=dead plant). Plants are also visually evaluated for agronomic effects such as interveinal and veinal chlorosis, reddening, leaf malformation, necrosis, apical withering/death/regrowth, and whole plant height.

[2] = test system: Tobacco (cv. Petite Havana) T0 plants; test: Saflufenacil foliar spray of transgenic T0 tobacco plants, visual injury; format: in vivo; settings: 12.5 g/ha spray; for mean visual injury score: tobacco T0 plants carrying the susceptible allele
Protocol: Tobacco (cv. Petite Havana) was transformed by particle bombardment with plant expression vectors using a strong constitutive promoter to control the GM ABCT1 SUS (susceptible allele, SEQ ID NO: 125) or GM ABCT1 RES (resistant allele, SEQ ID NO: 124) genes using the following protocol: • 1) Weigh 1 mg 0.6 micron gold powder (for 8 shots). Add 1 ml 100% ethanol Sonicate 2 min. Centrifuge at 13,000 rpm×5 sec. Remove Supernatant. Repeat 3 times. • 2) Add 1 ml sterile double-deionized water. Sonicate 2 min. Centrifuge at 13,000 rpm×5 sec. Remove Supernatant. Repeat 2 times. • 3) Add 321 μl sterile water. Vortex and sonicate 2 min. • 4) Add 4 μl of DNA (1 μg/μl concentration) and vortex briefly. • 5) Add 100 μl of 5M CaCl2 and 80 μl of 0.1M Spermidine (14 μl of Spermidine+985.6 μl water prepared freshly). Mix with finger and vortex 2 sec. • 6) Incubate on ice for 1 min. Spin down at 13,000 rpm for 2 sec and remove supernatant. • 7) Add 500 μl of 100% ethanol. Pipette up and down a few times to wash. (It is important to break all big aggregates at this stage). Vortex 2 sec. Spin down at 13,000 rpm for 2 sec and remove supernatant. • 8) Re-suspend in 85 μl of 100% ethanol. Keep on ice. Vortex solution before spreading 10 μl of DNA prep on flying disk. (Sterilize in 100% ethanol for 5-10 min and air dry, also sterilize and air dry 1100 psi rupture disk). • 9) Place tobacco leaf (cv. Petit Havana) abaxial side up in the center of a petri plate containing MS01 medium (MS+B5 vitamins (Phytotechnology M519), Sucrose 30 g/l, agar 8 g/l, BA 2 mg/L, NAA 0.05 mg/L). • 10) Bombard with 28 mm Hg vacuum, position plate at 9 cm (2nd position from bottom), 1100 psi rupture disk. After bombardment, invert leaves so bombarded side and petioles are in contact with medium. • 11) Maintain leaves under 16 hrs/day dim light (<5 μEinstein) for 2-3 days. • 12) Cut leaves into small pieces (0.5 cm×0.5 cm) in MSB-Co (MS+Vit, Glucose 10 g/L, BA 50 mg/L, pH5.2), then blot dry on sterile filter paper and place with bombarded side in contact with the MS01 medium containing hygromycin 25 mg/L under 16 hrs/day light (80-120 μEinstein). When shoots appear, cut and place directly in selection media. • 13) Until shoots appear, change selection medium every 2 weeks. • 14) When entire plantlets are formed (1-2 cm high), leaves are cut into approx. 1-2 mm segments and re-cultured on MS01 medium containing hygromycin 25 mg/L and 8 g/L agar. Subculture to fresh medium every 3 weeks. When new shoots appear, isolate single shoots and transfer onto ½ MS media (M519 2.22 g/L, sucrose 15 g/L, agar 6 g/L).
Stable transgenic events were tested for presence of the transgene by PCR, and transcription of the genes was confirmed by qRT-PCR. Three clonal plants were produced from each transgenic event; two plants from each event were used for the spray experiment.
Plants were grown until 3 to 5 expanded true leaves were present and then sprayed with saflufenacil at a rate of 12.5 g/ha. All treatments were applied in a spray volume of 140 L/ha. Ammonium sulfate was included at 1% w/v. Treated plants were compared to untreated plants of similar genetic background and evaluated for herbicide injury at seven and seventeen days after treatment. Visual injury was on a scale of 0 to 100% injury (0=no effect to 100=dead plant).

[3] = test system: tobacco T1 seeds and wild type seeds; test: Germination of tobacco T1 seeds on Gelrite plates containing saflufenacil; format: in vivo
Protocol: Unsprayed clones of the transgenic tobacco plants described above were grown in a greenhouse until flowering and were allowed to self pollinate. Seeds were harvested and used for further experiments. Transgene insertion copy number was not determined for these plants, but for single copy plants the seeds would be expected to segregate 1homozygous:2hemizygous:1null for the transgene.
T1 seeds from multiple transgenic events carrying the resistant and susceptible alleles, and wild type seeds, were germinated on 1.5% Gelrite (no nutrients or minerals) plates and kept in a growth chamber at 26° C. under a 16 hr light regime. Plate media contained saflufenacil at concentrations down to 0.45 parts per billion (ppb). […] All seed germinated and grew normally on Gelrite plates lacking saflufenacil.

[4] = test system: tobacco T1 seedlings and wild type; test: Saflufenacil soil drench of tobacco T1 seedlings in pots; format: in vivo; settings: three days after treatment
Description: T1 seeds were sown in four inch pots containing soil and allowed to germinate for five days. At this point, with cotyledons visible above the soil, pots were drenched with 100 mls saflufenacil in water at 0.45 ppb. The solution was applied to soil, avoiding direct contact with plant cotyledons.

How did the mean visual injury ([1]; soybean cv. Jack T0 plants carrying the resistant allele (GM ABCT1 TOL)) turn out when `CC(C)N(C)S(=O)(=O)NC(=O)c1cc(-n2c(=O)cc(C(F)(F)F)n(C)c2=O)c(F)cc1Cl` [saflufenacil] was run?
Its mean visual injury is 72%.

What about the “mean visual injury score” value ([1]; soybean cv. Jack T0 plants carrying the susceptible allele (GM ABCT1 SUS)) of the same compound?
The value was 59%.

What about the mean visual injury ([1]; wild type soy plants) of the same compound?
Its mean visual injury is 84%.

What about the mean visual injury ([2]; tobacco T0 plants carrying the resistant allele, seven days after treatment) of the same compound?
The mean visual injury was 63%.

What about the mean visual injury ([2]; tobacco T0 plants carrying the resistant allele, seventeen days after treatment) of the same compound?
The mean visual injury was 46%.

What about the “mean visual injury score” value ([2]; seven days after treatment) of the same compound?
Its value is 77%.

What about the “mean visual injury score” value ([2]; seventeen days after treatment) of the same compound?
Its value is 61%.

And the mean visual injury ([2]; transgenic control tobacco plants carrying an unrelated transgene, seven days after treatment)?
Its mean visual injury is 63%.

And the mean visual injury ([2]; transgenic control tobacco plants carrying an unrelated transgene, seventeen days after treatment)?
The mean visual injury was 53%.

What about the “difference between transgenic seed with either GM ABCT1 allele and wild type seed” value ([3]; Gelrite plates containing saflufenacil down to 0.45 ppb) of the same compound?
Its value is “No visible difference”.

What about the “seed germination and growth” value ([3]; plate media at 0.91 ppb and 0.45 ppb, transgenic T1 and wild type tobacco seed) of the same compound?
The value was “seeds germinated but were bleached and failed to grow”.

What about the seed germination ([3]; plate media at concentrations above 0.91 ppb, transgenic T1 and wild type tobacco seed) of the same compound?
The seed germination was “no germination was observed”.

And the seedling condition ([4]; 100 mls at 0.45 ppb drenched to soil five days after sowing)?
The seedling condition was “all seedlings were severely bleached and appeared dead”.

And the “differences between transgenic lines and wild type” value ([4]; 100 mls at 0.45 ppb soil drench)?
Its value is “No visible differences”.
